One assay concerns the target T1, human TLR7 (Homo sapiens, UniProt Q9NYK1).
T1 construct: host or cells: HEK293 (HEK-Blue hTLR7)
T1 sequence (Q9NYK1 27-1049): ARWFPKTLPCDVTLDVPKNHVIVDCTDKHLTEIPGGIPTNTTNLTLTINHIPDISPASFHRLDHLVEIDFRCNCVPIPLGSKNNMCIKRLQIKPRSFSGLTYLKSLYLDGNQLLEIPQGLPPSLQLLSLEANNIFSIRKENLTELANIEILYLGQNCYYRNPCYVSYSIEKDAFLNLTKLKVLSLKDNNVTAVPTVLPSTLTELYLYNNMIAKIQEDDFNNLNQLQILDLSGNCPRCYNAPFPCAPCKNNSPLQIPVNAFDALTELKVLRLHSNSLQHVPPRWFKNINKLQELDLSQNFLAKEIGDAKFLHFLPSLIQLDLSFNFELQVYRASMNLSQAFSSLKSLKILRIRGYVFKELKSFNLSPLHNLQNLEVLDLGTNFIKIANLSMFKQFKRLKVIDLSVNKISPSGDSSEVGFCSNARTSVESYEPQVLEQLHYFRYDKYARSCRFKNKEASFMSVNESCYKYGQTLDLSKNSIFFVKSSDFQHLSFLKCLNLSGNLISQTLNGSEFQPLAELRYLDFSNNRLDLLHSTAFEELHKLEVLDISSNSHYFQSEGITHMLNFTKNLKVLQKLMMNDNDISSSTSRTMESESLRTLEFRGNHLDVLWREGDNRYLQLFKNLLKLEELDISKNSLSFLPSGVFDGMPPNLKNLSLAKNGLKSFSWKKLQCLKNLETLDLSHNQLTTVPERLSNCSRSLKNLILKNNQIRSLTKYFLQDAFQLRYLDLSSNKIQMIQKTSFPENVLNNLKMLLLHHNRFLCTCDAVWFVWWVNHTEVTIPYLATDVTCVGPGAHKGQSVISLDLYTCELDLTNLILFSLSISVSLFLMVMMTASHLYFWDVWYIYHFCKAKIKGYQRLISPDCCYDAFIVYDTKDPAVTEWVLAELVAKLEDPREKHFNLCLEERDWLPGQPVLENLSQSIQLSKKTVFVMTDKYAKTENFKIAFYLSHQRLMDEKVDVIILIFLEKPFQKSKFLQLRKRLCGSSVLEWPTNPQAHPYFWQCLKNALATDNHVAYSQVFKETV
As to the kind of experiment: HEK-Blue hTLR7 reporter cell assay (SEAP, NF-kB/AP-1) for stimulation of human TLR7. The assay is classed as cell-based. Particulars: HEK-Blue hTLR7 cells; for EC50: 24 h incubation, SEAP readout, read-out: TLR7_EC50; for activation at 20 µM: 24 h, at 20000 nM. The procedure, abridged:
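HEK293 cells expressing hTLR7 with NF-κB/AP-1-driven SEAP reporter, seeded 3.10E4 cells/well, pre-incubated 18–24 h, then exposed to 3-fold compound dilutions (0.01–20 μM) for 24 h at 37 °C. Supernatant SEAP read with QUANTI-Blue; EC50 as concentration giving 50% activation.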

The next assay deals with T2, human TLR8 (Homo sapiens, UniProt Q9NR97).
T2 construct: host or cells: HEK293 (HEK-Blue hTLR8)
T2 sequence (Q9NR97 27-1041): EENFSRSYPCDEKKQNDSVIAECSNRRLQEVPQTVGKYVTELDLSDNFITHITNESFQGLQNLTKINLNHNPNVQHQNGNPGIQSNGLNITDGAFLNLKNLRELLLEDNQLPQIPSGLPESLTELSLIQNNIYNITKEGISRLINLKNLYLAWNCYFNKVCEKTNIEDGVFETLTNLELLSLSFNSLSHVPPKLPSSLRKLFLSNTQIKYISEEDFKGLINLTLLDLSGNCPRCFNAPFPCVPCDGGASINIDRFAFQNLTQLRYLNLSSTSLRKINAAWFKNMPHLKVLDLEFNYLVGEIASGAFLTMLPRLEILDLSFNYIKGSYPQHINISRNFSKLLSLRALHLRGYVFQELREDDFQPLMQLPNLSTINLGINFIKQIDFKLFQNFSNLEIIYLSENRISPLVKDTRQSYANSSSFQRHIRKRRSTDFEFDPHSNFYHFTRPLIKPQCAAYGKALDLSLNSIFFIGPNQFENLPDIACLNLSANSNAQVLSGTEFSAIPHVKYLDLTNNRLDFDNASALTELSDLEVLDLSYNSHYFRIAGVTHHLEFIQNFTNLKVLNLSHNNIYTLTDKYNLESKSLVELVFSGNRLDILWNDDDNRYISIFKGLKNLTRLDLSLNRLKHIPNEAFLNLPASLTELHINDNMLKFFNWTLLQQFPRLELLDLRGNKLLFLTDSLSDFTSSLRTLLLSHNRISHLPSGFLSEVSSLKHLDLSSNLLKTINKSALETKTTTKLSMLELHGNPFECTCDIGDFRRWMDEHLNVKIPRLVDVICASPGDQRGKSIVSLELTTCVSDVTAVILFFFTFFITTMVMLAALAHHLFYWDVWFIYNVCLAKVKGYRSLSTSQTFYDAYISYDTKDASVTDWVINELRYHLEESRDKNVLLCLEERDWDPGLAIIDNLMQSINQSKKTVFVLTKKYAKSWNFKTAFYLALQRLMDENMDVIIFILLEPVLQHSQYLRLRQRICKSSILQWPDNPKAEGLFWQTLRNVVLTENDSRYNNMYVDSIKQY
Briefly: HEK-Blue hTLR8 reporter cell assay (SEAP, NF-kB/AP-1) for stimulation of human TLR8. The assay is classed as cell-based. The following applies: HEK-Blue hTLR8 cells; for EC50: 24 h incubation, SEAP readout, read-out: TLR8_EC50; for activation at 20 µM: 24 h, at 20000 nM. The procedure, abridged: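 HEK293 cells carrying hTLR8 and a SEAP reporter driven by NF-κB/AP-1 sites were seeded at 3.10E4 cells/well and held 18 to 24 h at 37° C., 5% CO2 before compound addition. Supernatant SEAP measured with QUANTI-Blue™.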

EC50 and activation data for 19 compounds are collected here from patent publication US12583861B2, “Derivatives of imidazo[4,5-d]pyridazine, their preparation and their therapeutic application” (SANOFI, priority 2021, dated 2026).

Each structure is given as a SMILES string. Counter-ions that a name gives are not always drawn.

`CCCCc1nc2c(N)nnc(OC(C)C)c2n1Cc1ccc(CN[C@H]2C[C@H](O)C2)cc1` [Compound 100, (1R,3R)-3-((4-((4-amino-2-butyl-7-isopropoxy-1H-imidazo[4,5-d]pyridazin-1-yl)methyl)benzyl)amino)cyclobutan-1-ol dihydrochloride salt]: the EC50 on human TLR7 is 0.036 µM; at human TLR8, 2.17 µM.

`CCCCc1nc2c(N)nnc(OC(C)C)c2n1Cc1ccc(CN2CCOCC2)cc1` [Compound 102, 2-butyl-7-isopropoxy-1-(4-(morpholinomethyl)benzyl)-1H-imidazo[4,5-d]pyridazin-4-amine]: the EC50 on human TLR7 turned out to be 0.071 µM; at human TLR8 it was 3.83 µM.

On to `CCCCc1nc2c(N)nnc(OC(C)C)c2n1Cc1ccc(CNC(=O)OCC)cc1` [Compound 111, ethyl (4-((4-amino-2-butyl-7-isopropoxy-1H-imidazo[4,5-d]pyridazin-1-yl)methyl)benzyl)carbamate], for which the EC50 is 0.099 µM at human TLR7 and more than 20 µM at human TLR8.

For `CCCCCCCCCCC(=O)NCc1ccc(Cn2c(CCCC)nc3c(N)nnc(OC(C)C)c32)cc1` [Compound 29, N-(4-((4-amino-2-butyl-7-isopropoxy-1H-imidazo[4,5-d]pyridazin-1-yl)methyl)benzyl)undecanamide], the figures for the EC50 on human TLR7 and at human TLR8 were 0.117 µM and more than 20 µM, respectively.

Regarding `CCCNc1nc2c(N)nnc(OC(C)C)c2n1Cc1ccc(CN)cc1` [Compound 163, 3-[[4-(aminomethyl)phenyl]methyl]-4-isopropoxy-N2-propyl-imidazo[4,5-d]pyridazine-2,7-diamine], the activation at 20 µM at human TLR7 is 16.7%; at human TLR8 it was 15.4%.

As for `CCCCc1nc2c(N)nnc(N(C)Cc3ccccc3)c2n1C` [Compound 90, N7-benzyl-2-butyl-N7,1-dimethyl-1H-imidazo[4,5-d]pyridazine-4,7-diamine], the EC50 turned out to be 10.6 µM on human TLR7 and 12.7 µM at human TLR8.

Regarding `CCCCc1nc2c(N)nnc(NC(C)C)c2[nH]1` [Compound 98, 2-butyl-N7-isopropyl-1H-imidazo[4,5-d]pyridazine-4,7-diamine], the activation at 20 µM on human TLR7 was 8%; at human TLR8 it was 6%.

As to `CCCCc1nc2c(N)nnc(OC(C)C)c2n1Cc1ccc(CNC(=O)NCC)cc1` [Compound 113, 1-(4-((4-amino-2-butyl-7-isopropoxy-1H-imidazo[4,5-d]pyridazin-1-yl)methyl)benzyl)-3-ethylurea], the EC50 was 0.12 µM at human TLR7 and more than 20 µM at human TLR8.

Turning to `CCCCc1nc2c(N)nnc(OC(C)C)c2n1Cc1ccc(CNCCOCCOCCOCCOCCOCCOC)cc1` [Compound 105, 2-butyl-4-isopropoxy-3-[[4-[[2-[2-[2-[2-[2-(2-methoxyethoxy)ethoxy]ethoxy]ethoxy]ethoxy]ethylamino]methyl]phenyl]methyl]imidazo[4,5-d]pyridazin-7-amine], the EC50 at human TLR7 was 0.114 µM; at human TLR8 it was more than 20 µM.

As for `CCCCc1nc2c(N)nnc(/C=C/C(C)C)c2n1C[C@H]1CC[C@H](CN)CC1` [Compound 137, 1-(((1R,4R)-4-(aminomethyl)cyclohexyl)methyl)-2-butyl-7-((E)-3-methylbut-1-en-1-yl)-1H-imidazo[4,5-d]pyridazin-4-amine], the values for the EC50 on human TLR7 and at human TLR8 were 0.145 µM and more than 20 µM, respectively.

`CCCCc1nc2c(N)nnc(N3CCC(c4ccc(CO)cc4)C3)c2n1C` (centres unmarked) [Compound 85, (4-(1-(4-amino-2-butyl-1-methyl-1H-imidazo[4,5-d]pyridazin-7-yl)pyrrolidin-3-yl)phenyl)methanol hydrochloride]: the EC50 was found to be 0.606 µM at human TLR7 and 3.1 µM at human TLR8.

For the compound `CCCCc1nc2c(N)nnc(OC(C)C)c2n1CCCCCCN` [Compound 146, 3-(6-aminohexyl)-2-butyl-4-isopropoxy-imidazo[4,5-d]pyridazin-7-amine dihydrochloride salt], the figures for the EC50 on human TLR7 and at human TLR8 were 0.191 µM and more than 20 µM, respectively.

Consider `CCCCc1nc2c(N)nnc(OC(C)C)c2n1Cc1ccc(CNCCOCCOCCOCCOC)cc1` [Compound 121, 2-butyl-4-isopropoxy-3-[[4-[[2-[2-[2-(2-methoxyethoxy)ethoxy]ethoxy]ethylamino]methyl]phenyl]methyl]imidazo[4,5-d]pyridazin-7-amine], for which the results for the EC50 at human TLR7 and at human TLR8 were 0.086 µM and 15.9 µM, respectively.

On to `CCCCc1nc2c(N)nnc(OC(C)C)c2n1Cc1ccc(CNC(=O)CCOCCOC)cc1` [Compound 31, N-(4-((4-amino-2-butyl-7-isopropoxy-1H-imidazo[4,5-d]pyridazin-1-yl)methyl)benzyl)-3-(2-methoxyethoxy)propanamide], for which the EC50 on human TLR7 was 0.326 µM; at human TLR8, more than 20 µM.

On to `CCCCc1nc2c(N)nnc(OC3CCS(=O)(=O)C3)c2n1Cc1ccc(OC)cc1` (centres unmarked) [Compound 68, 3-((4-amino-2-butyl-1-(4-methoxybenzyl)-1H-imidazo[4,5-d]pyridazin-7-yl)oxy)tetrahydrothiophene 1,1-dioxide], for which the EC50 is 4.77 µM at human TLR7 and more than 20 µM on human TLR8.

For `CCCCc1nc2c(N)nnc(OC3CCOC3)c2n1Cc1ccc(OC)cc1` (centres unmarked) [Compound 56, 2-butyl-1-(4-methoxybenzyl)-7-((tetrahydrofuran-3-yl)oxy)-1H-imidazo[4,5-d]pyridazin-4-amine], the figures for the EC50 on human TLR7 and on human TLR8 were 0.231 µM and more than 20 µM, respectively.

Regarding `CCCCc1nc2c(N)nnc(OC(C)C)c2n1Cc1ccc(CNC2(C)CCC2)cc1` [Compound 39, 2-butyl-7-isopropoxy-1-(4-(((1-methylcyclobutyl)amino)methyl)benzyl)-1H-imidazo[4,5-d]pyridazin-4-amine], the EC50 is 0.017 µM on human TLR7 and 0.401 µM on human TLR8.

Regarding `CCOCc1nc2c(N)nnc(OC(C)C)c2n1Cc1ccc(CN)cc1` [Compound 159, 1-(4-(aminomethyl)benzyl)-2-(ethoxymethyl)-7-isopropoxy-1H-imidazo[4,5-d]pyridazin-4-amine], the EC50 on human TLR7 is 0.247 µM; at human TLR8, more than 20 µM.

`CCCCc1nc2c(N)nnc(OC3CC[S+]([O-])C3)c2n1Cc1ccc(OC)cc1` (single isomer, unassigned; isomer a) [Compound 65, 3-((4-amino-2-butyl-1-(4-methoxybenzyl)-1H-imidazo[4,5-d]pyridazin-7-yl)oxy)tetrahydrothiophene 1-oxide isomer A]: the EC50 on human TLR7 is 2.21 µM; at human TLR8 it was more than 20 µM.
